From patent US11542290B2 (priority 2018, dated 2023)
Several values for one entry are separate records, joined by “and”; a condition that tells them apart may be missing. Equal entries are not always repeated. Where two headings read alike, the source gives them in different places.

How the values were obtained:
P-gp (MDR1) = experiment: in vitro; details: dog
in vitro = details: human
rps29−/− embryos = details: in vivo, cited from earlier work
[1] = test system: CD34+ hematopoietic stem and progenitor cells with rps19 knockdown; details: cited from earlier work
Caco-2 cells [2] = details: cited from earlier work
[3] = test system: embryos of Rps29 heterozygote fish; experiment: Zebra fish assay (tail mutation and anemia classification, o-dianisidine staining)
Caco-2 cells [4] = test system: Caco-2 cells
[5] = antipsychotic potency; cited from earlier work
[6] = in vivo; cited from earlier work
DBA murine model = details: injection; cited from earlier work
[7] = target: p70 ribosomal S6 kinase (p70S6K) (Homo sapiens (Human), UniProt P23443); details: profiling of over 100 kinases; cited from earlier work
p70 ribosomal S6 kinase (p70S6K), sequence (P23443 whole entry): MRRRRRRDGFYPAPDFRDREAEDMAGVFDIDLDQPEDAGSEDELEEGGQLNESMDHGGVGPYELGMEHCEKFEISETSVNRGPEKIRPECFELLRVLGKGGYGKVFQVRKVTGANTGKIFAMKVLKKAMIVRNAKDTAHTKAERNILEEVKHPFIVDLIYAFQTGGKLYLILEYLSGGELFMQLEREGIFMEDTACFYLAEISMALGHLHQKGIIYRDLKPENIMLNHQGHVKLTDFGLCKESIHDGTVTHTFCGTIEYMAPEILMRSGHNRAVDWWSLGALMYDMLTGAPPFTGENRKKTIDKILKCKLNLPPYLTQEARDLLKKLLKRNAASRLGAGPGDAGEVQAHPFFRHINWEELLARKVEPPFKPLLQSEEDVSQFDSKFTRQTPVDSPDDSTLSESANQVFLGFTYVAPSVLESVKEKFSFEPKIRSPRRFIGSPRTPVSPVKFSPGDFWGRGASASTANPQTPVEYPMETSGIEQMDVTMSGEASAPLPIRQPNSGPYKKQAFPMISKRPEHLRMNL

[8] = MDCK-MDR1, Efflux ratio MDCK-MDR1 cells
[9] = MDCK-MDR1, Permeability coefficient (Papp) MDCK-MDR1 cells (A -> B)
[10] = MDCK-MDR1, Permeability coefficient (Papp) MDCK-MDR1 cells (B -> A)
[11] = Caco-2, Efflux ratio Caco-2 cells
[12] = Caco-2, Permeability coefficient (Papp) Caco-2 cells (A -> B)
[13] = Caco-2, Permeability coefficient (Papp) Caco-2 cells (B -> A)
[14] = 10 μM of the compound, 48 hours of treatment from 24 hours post fertilization

c1ccc2c(c1)Nc1ccccc1S2 [10H-phenothiazine]
Papp A→B at 60 min (P-gp (MDR1); MDCK-MDR1): 53.8 ×10⁻⁶ cm/s | Papp B→A at 60 min (P-gp (MDR1); MDCK-MDR1): 38 ×10⁻⁶ cm/s | efflux ratio at 60 min (P-gp (MDR1); MDCK-MDR1): 0.71 | Papp A→B at 2 h (in vitro; Caco-2): 42.7 ×10⁻⁶ cm/s | Papp B→A at 2 h (in vitro; Caco-2): 37.7 ×10⁻⁶ cm/s | efflux ratio at 2 h (in vitro; Caco-2): 0.88

CC1(CN2CCC(n3c(=O)[nH]c4ccccc43)CC2)OCc2ccccc2-n2cccc21.O=C(O)/C=C\C(=O)O (stereo not shown) [CGS-9343B]
Endothelial defect in rps29 mutant embryos (in words) (rps29−/− embryos; zebrafish): successfully rescued the endothelial defect

NCCNS(=O)(=O)c1cccc2c(Cl)cccc12 [Compound A-3]
Hemoglobin levels in the zebrafish embryo (in words) (rps29−/− embryos): rescued hemoglobin levels | Morphology of the embryo head (in words) (rps29−/− embryos; zebrafish): improved the morphology of the apoptotic embryo head | Concentration decreasing the levels of p21 in CD34+ cells ([1]; in vitro): 1 to 50 µM | p53 and p21 levels or nuclear localization (in words) ([1]; rps19 knockdown by siRNA): decreased p53 and p21 levels or nuclear localization

NCCCCCCCCCCNS(=O)(=O)c1cccc2c(Cl)cccc12 [Compound A-7]
Vascular defects in rps29 mutant embryos (in words) (rps29−/− embryos; zebrafish): rescued vascular defects

NCCCCCCNS(=O)(=O)c1cccc2ccccc12 [Compound W-5]
Vascular defects in rps29 mutant embryos (in words) (rps29−/− embryos; zebrafish): rescued vascular defects

NCCCCCCNS(=O)(=O)c1cccc2c(Cl)cccc12 [Compound W-7]
Hemoglobin levels in the zebrafish embryo (in words) (rps29−/− embryos): rescued hemoglobin levels | Endothelial defect in rps29 mutant embryos (in words) (rps29−/− embryos; zebrafish): rescued the endothelial defect

CC[C@H]1OC(=O)[C@H](C)[C@@H](O[C@H]2C[C@@](C)(OC)[C@@H](O)[C@H](C)O2)[C@H](C)[C@@H](O[C@@H]2O[C@H](C)C[C@H](N(C)C)[C@H]2O)[C@](C)(O)C[C@@H](C)C(=O)[C@H](C)[C@@H](O)[C@]1(C)O [Erythromycin]
efflux ratio at 60 min (P-gp (MDR1); [8]): 0.96 | Papp A→B at 60 min (P-gp (MDR1); [9]): 31.9 ×10⁻⁶ cm/s | Papp B→A at 60 min (P-gp (MDR1); [10]): 30.6 ×10⁻⁶ cm/s | Efflux status of reference compound (in words) (Caco-2 cells [2]; Caco-2): efflux substrates | efflux ratio at 2 h (in vitro; [11]): > 173 | Papp A→B at 2 h (in vitro; [12]): 0.21 ×10⁻⁶ cm/s | Papp B→A at 2 h (in vitro; [13]): 21.9 ×10⁻⁶ cm/s

OCCN1CCN(CCCN2c3ccccc3Sc3ccc(C(F)(F)F)cc32)CC1 [Fluphenazine, 4-[3-[2-(trifluoromethyl)phenothiazin-10-yl]lpropyl]-1-piperazineethanol]
Endothelial defect in rps29 mutant embryos (in words) (rps29−/− embryos; zebrafish): successfully rescued the endothelial defect

FC(F)(F)c1ccc2c(c1)N(CCCCN1CCCCC1)c1ccccc1S2 [MT-009, 10-(4-(piperidin-1-yl)butyl)-2-(trifluoromethyl)-10H-phenothiazine]
Papp A→B at 60 min (P-gp (MDR1); [9]): < 1.42 ×10⁻⁶ cm/s | Efflux ratio MDCK-MDR1 cells (MDCK-MDR1 cells; dog, MDCK-MDR1, 60 min): 0 | efflux ratio at 2 h (in vitro; [11]): 0.68 | Papp A→B at 2 h (in vitro; [12]): 3.81 ×10⁻⁶ cm/s | Papp B→A at 2 h (in vitro; [13]): 2.61 ×10⁻⁶ cm/s

OCCN(CCO)CC(O)CN1c2ccccc2Sc2ccc(C(F)(F)F)cc21 (stereo not shown) [MT-014, 2,2′-(2-hydroxy-3-(2-(trifluoromethyl)-10H-phenothiazin-10-yl)propylazanediyl)-diethanol]
Tail and anemia phenotypes versus DMSO (in words) ([3]; 10 μM, three experiments): less severe tail and anemia phenotypes

OCCOCCOCCN1CCN(CC(O)CN2c3ccccc3Sc3ccc(C(F)(F)F)cc32)CC1 (stereo not shown) [MT-016, 1-(4-(2-(2-(2-hydroxyethoxy)ethoxy)ethyl)piperazin-1-yl)-3-(2-(trifluoromethyl)-10H-phenothiazin-10-yl)propan-2-ol]
Ratio of embryos in group MA (mutant anemic) [3, 14]: 7% and 9% and 5% | Ratio of embryos in group MNA (mutant not anemic) [3, 14]: 7% and 8% | Ratio of embryos in group MPA (mutant partial anemic) [3, 14]: 17% and 10% and 15% | Ratio of embryos in group WT (wild type) [3, 14]: 69% and 74% and 72% | efflux ratio at 60 min (P-gp (MDR1); [8]): > 9.83 | Papp A→B at 60 min (P-gp (MDR1); [9]): 1.05 ×10⁻⁶ cm/s | Papp B→A at 60 min (P-gp (MDR1); [10]): 10.3 ×10⁻⁶ cm/s | efflux ratio at 2 h (in vitro; [11]): 1.33 | Papp A→B at 2 h (in vitro; [12]): 12.5 ×10⁻⁶ cm/s | Papp B→A at 2 h (in vitro; [13]): 16.6 ×10⁻⁶ cm/s

CS(=O)(=O)NCC1CCN(CC(O)CN2c3ccccc3Sc3ccc(C(F)(F)F)cc32)CC1 (stereo not shown) [MT-036, N-((1-(2-hydroxy-3-(2-(trifluoromethyl)-10H-phenothiazin-10-yl)propyl)piperidin-4-yl)methyl)methanesulfonamide]
Permeability coefficient (Papp) Caco-2 cells (A -> B) (Caco-2 cells [4]; apical to basolateral, 2-hour): 8.55 10^−6 cm/s | Permeability coefficient (Papp) Caco-2 cells (B -> A) (Caco-2 cells [4]; basolateral to apical, 2-hour): 15.93 10^−6 cm/s | Efflux ratio Caco-2 cells (Caco-2 cells [4]; from mean Papp B-A and A-B, 2-hour transport): 1.86 | Permeability coefficient (Papp) MDCK-MDR1 cells (A -> B) (MDCK-MDR1 cells; apical to basolateral, 60-min, 37° C.): 2.85 10^−6 cm/s | Permeability coefficient (Papp) MDCK-MDR1 cells (B -> A) (MDCK-MDR1 cells; basolateral to apical, 60-min, 37° C.): 13.91 10^−6 cm/s | Efflux ratio MDCK-MDR1 cells (MDCK-MDR1 cells; from mean Papp B-A and A-B, 60-min transport, 37° C.): 4.89

COCCc1ccc(OCC(O)CNC(C)C)cc1 (stereo not shown) [Metoprolol]
efflux ratio at 60 min (P-gp (MDR1); [8]): 0.81 | Efflux ratio Caco-2 cells (Caco-2 cells [4]; human, Caco-2, 2 h): 1.11 | Efflux ratio MDCK-MDR1 cells (MDCK-MDR1 cells; dog, MDCK-MDR1, 60 min): 0.85 | Cell permeability of reference compound (in words) (Caco-2 cells [2]): high cell permeability | efflux ratio at 2 h (in vitro; [11]): 0.89 | Papp A→B at 2 h (in vitro; [12]): 33.8 ×10⁻⁶ cm/s | Papp B→A at 2 h (in vitro; [13]): 30.2 ×10⁻⁶ cm/s

OCCN1CCN(CCCN2c3ccccc3Sc3ccc(Cl)cc32)CC1 [Perphenazine, 4-[3-(2-Chloro-10H-phenothiazin-10-yl)propyl]-1-piperazineethanol]
Endothelial defect in rps29 mutant embryos (in words) (rps29−/− embryos; zebrafish): successfully rescued the endothelial defect | Potency relative to chlorpromazine [5]: approximately 5 times | Oral bioavailability [6]: approximately 40%

CN1CCN(CCCN2c3ccccc3Sc3ccc(Cl)cc32)CC1 [Prochloperazine]
Papp A→B at 60 min (P-gp (MDR1); [9]): < 1.28 ×10⁻⁶ cm/s | Papp B→A at 60 min (P-gp (MDR1); [10]): < 0.59 ×10⁻⁶ cm/s | efflux ratio at 2 h (in vitro; [11]): 0.35 | Papp A→B at 2 h (in vitro; [12]): 1.29 ×10⁻⁶ cm/s | Papp B→A at 2 h (in vitro; [13]): 0.46 ×10⁻⁶ cm/s

C=C[C@H]1C[N@@]2CC[C@H]1C[C@@H]2[C@@H](O)c1ccnc2ccc(OC)cc12 [Quinidine]
Papp A→B at 60 min (P-gp (MDR1); [9]): 10.1 ×10⁻⁶ cm/s | Papp B→A at 60 min (P-gp (MDR1); [10]): 44 ×10⁻⁶ cm/s

CN1CCN(CCCN2c3ccccc3Sc3ccc(S(=O)(=O)N(C)C)cc32)CC1 [Thioproperazine Dimesilate]
Papp A→B at 60 min (P-gp (MDR1); [9]): 3.35 ×10⁻⁶ cm/s | Papp B→A at 60 min (P-gp (MDR1); [10]): 3.56 ×10⁻⁶ cm/s | Papp A→B at 2 h (in vitro; [12]): 4.07 ×10⁻⁶ cm/s | Papp B→A at 2 h (in vitro; [13]): 3.51 ×10⁻⁶ cm/s

CN1CCN(CCCN2c3ccccc3Sc3ccc(C(F)(F)F)cc32)CC1 [Trifluoperazine, 10-[3-(4-methylpiperazin-1-yl)propyl]-2-(trifluoromethyl)phenothiazine]
Endothelial defect in rps29 mutant embryos (in words) (rps29−/− embryos; zebrafish): successfully rescued the endothelial defect | Red blood cell number and hemoglobin levels (in words) (DBA murine model): significantly increased red blood cell number and hemoglobin levels | p53 activity in the bone marrow (in words) (DBA murine model): reduced p53 activity in the bone marrow | Concentration restoring the percentage of CD71+ cells in an erythroid cell population ([1]; in vitro): 5 to 20 µM | Erythroid differentiation block (in words) ([1]; shRNA against RPS19, primary CD34+ bone marrow cells from DBA patients): relieved the erythroid differentiation block | Kinase activity of p70S6K (in words) [7]: inhibited the activity | Papp A→B at 60 min (P-gp (MDR1); [9]): < 0.87 ×10⁻⁶ cm/s
